In brackets after ≈: the same amount, converted by molar mass.
Columns and labels:
TNKS2 ARC5 = biological target: T1, TNKS2 ARC5 (Homo sapiens, UniProt Q9H2K2); assay: Differential scanning fluorimetry (DSF, thermal shift); assay type: binding; conditions: fragment 500 μM, 5% DMSO
T1 construct: followed by TNKS2 ARC5 (1 μL, 100 μM stock); His6-GST; made in house; host or cells: E. coli
Method: Therefore, we chose TNKS2 ARC5 for screening by DSF, anticipating the largest signal window for measuring changes in Tm upon fragment binding.
We screened 1869 compounds in duplicate at a concentration of 500 μM, which we considered a reasonable compromise between having a sufficiently high concentration to identify weak binders while minimising the likelihood of false positives through fragment precipitation/aggregation and non-specific binding. The final DMSO concentration was 5%. We calculated melting temperatures using both the inflection point and the maximum peak of first derivative data methods. Both methods generally agreed, unless the melt curve was biphasic or misshapen, with slightly lower variability for the […] Tm determination method (see Materials and Methods for experimental and analysis details).
We determined the melting temperature for the unbound ARC (Tm, 0) from the mean of 12 reference melting curves per plate, with 5% DMSO only. We calculated the change in melting temperature (ΔTm) by subtracting the mean Tm, 0 from Tm, compound. We tested compounds in duplicate, defining fragments as hits if they conferred a ΔTm outside two standard deviations (2σ) from the mean, in one or both replicates. To check for consistency between plates, we ran triplicate peptide controls; however, we excluded peptide ΔTm values from the calculation of the mean ΔTm to avoid skewing the results. We observed mean ΔTm values (IP/1st derivative methods) of −0.127/−0.331 °C and σ as 0.997/1.19 °C. A hit cut-off of 2σ gave absolute shifts of +1.87/+2.05 °C for compounds that stabilised and −2.13/−2.71 °C for compounds that destabilised the ARC (Fig. 2B).
For the screen, a C1000 thermal cycler (Bio-Rad) was used to record melt curves. SYPRO Orange was purchased as a 5000 × stock in DMSO from Sigma Aldrich. The ICR fragment library was available as 100 mM stocks in DMSO, and dispensed (25 nL) using an ECHO acoustic liquid handling system into white 384-well PCR plates (Framestar, 4titude). Wells were backfilled with DMSO (225 nL). Buffer (2.75 μL, 25 mM HEPES-NaOH pH 7.5, 100 mM NaCl, 2 mM TCEP) was added, followed by TNKS2 ARC5 (1 μL, 100 μM stock) and then SYPRO orange dye (1 μL, 25×). The plate was centrifuged after the addition of each reagent (1 min, 1000 × g). Final assay concentrations were as follows: TNKS2 ARC5 (20 μM); fragment (500 μM); SYPRO Orange dye (5×); DMSO (5% v/v) in a total volume of 5 μL. Peptide control wells (3BP2 TBM 16-mer, 200 μM, sequence LPHLQRSPPDGQSFRSW with C-terminal tryptophan added for photometric concentration measurements, the N-terminus acetylated and the C-terminus amide-capped) were plated in triplicate, and there were 12 blank wells per plate, with DMSO only (250 nL, 5% v/v). Melt curves were recorded from 20–95 °C, with the temperature ramped by 0.5 °C every 15 s. Data were analysed using Vortex (Dotmatics) software and melting temperatures calculated from both the inflection point and the maximum peak of 1st-derivative data. Data points were excluded if the melt curve was poor, i.e., if there was no fluorescence signal above baseline, high fluorescence intensity throughout, or if the melt curve was shallow (<1000 rfu difference between baseline and peak maximum). The unbound melting temperature was determined from the mean of 12 reference melting curves, with 5% DMSO only. The change in melting temperature (ΔTm) was calculated by subtracting the mean Tm, 0 from Tm, compound. Compounds were tested in duplicate, and fragments were defined as hits if they gave a ΔTm outwith 2 σ from the mean in one or both replicates.
For the experiment shown in Fig. 2A, ARC and 3BP2 TBM peptide concentrations were 20 and 200 μM, respectively, in 50 mM HEPES-NaOH pH 7.5, 100 mM NaCl, 2 mM TCEP and a total volume of 25 μL. SYPRO Orange was added at 5×. Data were recorded from 4–95 °C, with the temperature ramped by 0.5 °C every 15 s, using a CFX384 thermal cycler (Bio-Rad). […]

[1] = Fragment solubility assay by NMR; assay type: physicochemical; conditions: NMR buffer (HEPES-NaOH) with 5% DMSO, aqueous with cosolvent or surfactant or cyclodextrin, kinetic from dmso stock; NMR buffer pH 7.5, 5% DMSO, 500 μM nominal
Method: Fragments were dispensed into a 384-well plate (250 nL of 100 mM stock in DMSO, 500 μM final concentration) using an ECHO acoustic dispenser. DMSO (2.25 μL) was added, then NMR buffer (47.5 μL, 25 mM HEPES-NaOH pH 7.5, 100 mM NaCl, 1 mM TCEP, 10% D2O). The plate was centrifuged (1 min, 1000 × g) before the solutions were transferred to 1.7 mm NMR tubes using a Gilson liquid handling system. ^1H NMR spectra were recorded with the DMSO and water signals dampened. 100 μM caffeine was used as an external standard to quantify the ligand signals.

T1 sequence (Q9H2K2 641-800): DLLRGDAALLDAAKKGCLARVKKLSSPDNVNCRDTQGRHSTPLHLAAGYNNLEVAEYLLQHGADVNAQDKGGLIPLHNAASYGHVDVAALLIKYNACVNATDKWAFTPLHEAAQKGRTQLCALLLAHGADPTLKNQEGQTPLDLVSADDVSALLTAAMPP

SMILES | ΔTm (°C) (TNKS2 ARC5; method of Tm analysis not stated) | solubility [1] | ΔTm calculated by the inflection point method (TNKS2 ARC5; screen, biphasic melt curves) | ΔTm calculated by the 1st derivative method (TNKS2 ARC5; screen, second peak used to calculate Tm)
O=C(NCc1ccco1)c1ccc(F)cc1 [compound 3] | 2.5 °C | 220 µM (≈ 48.2 µg/mL) | – | –
O=C(NCc1ccc(F)cc1)c1ccc2nccnc2c1 [compound 5] | – | 410 µM (≈ 115 µg/mL) | 1.6 °C | 8.1 °C
O=C(NCc1ccco1)c1ccc2nccnc2c1 [compound 9] | – | 650 µM (≈ 165 µg/mL) | – | –

Source: publication PMC6911004, “Fragment-based screening identifies molecules targeting the substrate-binding ankyrin repeat domains of tankyrase” (Scientific Reports, 2019)
